Measurements from US11040223B2, “Compositions and methods related to xCT peptides” (AGILVAX, INC., priority 2015, dated 2021).

Experiments:
[1] = physiological conditions; cited from earlier work
[2] = system: TUBO cells; experiment: MTT in vitro cytotoxicity on TUBO cells; format: cell-based, mouse; conditions: 72 hours
Procedure: (§1) A MTT test was performed on TUBO cells and tumorspheres that had either been treated or not with scalar doses of xCT inhibitor SASP. […] On the contrary, xCT overexpression increases colony generating ability, as confirmed by the higher number of colonies generated in soft agar by NIH/3T3 and HEK-293 cells transfected with xCT when compared with the corresponding cells transfected with empty plasmids.
(§2) Twenty-four hours after TUBO cells and tumorspheres seeding in 96-well plates, scalar doses of doxorubicin or sulfasalazine (SASP; Sigma-Aldrich) were added and incubated at 37° C. for 72 hours. Cytotoxicity was evaluated with MTT using the Cell Proliferation Kit I (Roche Diagnostics).

[3] = system: TUBO-derived tumorspheres; experiment: MTT in vitro cytotoxicity on tumorspheres; format: cell-based; conditions: Mus musculus, 72 hours, read-out: IC50, tumorsphere viability (MTT)
Procedure: as §1, §2

[4] = molecular target: T1, xCT (Homo sapiens, UniProt Q9UPY5); conditions: animal models; cited from earlier work
T1 sequence (Q9UPY5 1-501): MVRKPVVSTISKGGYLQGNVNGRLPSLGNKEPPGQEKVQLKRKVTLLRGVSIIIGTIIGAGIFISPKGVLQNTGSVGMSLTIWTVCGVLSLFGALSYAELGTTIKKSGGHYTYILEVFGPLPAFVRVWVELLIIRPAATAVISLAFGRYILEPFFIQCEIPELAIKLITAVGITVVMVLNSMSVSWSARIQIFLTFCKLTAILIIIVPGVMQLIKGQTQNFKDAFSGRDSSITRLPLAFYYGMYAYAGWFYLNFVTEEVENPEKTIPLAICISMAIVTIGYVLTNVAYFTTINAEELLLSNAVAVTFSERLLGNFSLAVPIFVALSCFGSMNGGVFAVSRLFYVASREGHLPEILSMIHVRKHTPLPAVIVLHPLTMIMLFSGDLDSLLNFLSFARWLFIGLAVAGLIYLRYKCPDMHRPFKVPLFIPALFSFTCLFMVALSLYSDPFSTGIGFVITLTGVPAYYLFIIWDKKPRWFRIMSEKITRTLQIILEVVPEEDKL
T1 sequence (P08195 1-529 partner): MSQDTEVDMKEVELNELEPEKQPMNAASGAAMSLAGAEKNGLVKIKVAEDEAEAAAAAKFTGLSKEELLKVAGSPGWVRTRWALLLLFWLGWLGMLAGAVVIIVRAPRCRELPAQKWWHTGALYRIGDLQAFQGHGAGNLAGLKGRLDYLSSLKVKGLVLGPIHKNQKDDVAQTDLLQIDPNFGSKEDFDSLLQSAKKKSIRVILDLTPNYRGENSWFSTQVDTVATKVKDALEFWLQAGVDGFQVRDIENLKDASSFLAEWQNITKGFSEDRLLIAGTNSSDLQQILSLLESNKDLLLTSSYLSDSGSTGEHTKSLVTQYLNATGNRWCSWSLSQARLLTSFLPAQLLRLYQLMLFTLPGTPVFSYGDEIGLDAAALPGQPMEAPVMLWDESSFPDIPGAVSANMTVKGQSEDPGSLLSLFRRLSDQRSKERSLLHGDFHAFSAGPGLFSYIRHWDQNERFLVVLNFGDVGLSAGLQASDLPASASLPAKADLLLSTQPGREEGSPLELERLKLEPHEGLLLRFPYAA

[5] = in vivo; cited from earlier work
[6] = system: tumorspheres; experiment: Tumorsphere generation after SASP or xCT siRNAs; format: cell-based, mouse; conditions: spheres counted 5 days later (SASP)
Procedure: FIG. 4A-4H. xCT regulates CSC self-renewal and the intracellular redox balance. A and B, MTT assay of the cytotoxic effect exerted by scalar doses of SASP or by anti-xCT siRNAs on TUBO (A) and tumorspheres (B). (C) Sphere generation ability relative to untreated cells of tumorspheres incubated with SASP. (D) Sphere generation ability of tumorspheres incubated with siRNAs to xCT, scrambled siRNAs, or not at all shown as tumorsphere number/10^3 plated cells. (E) and (F) FACS analysis of xCT and CSC marker expression in spheres 24 hours after transfection with siRNAs to xCT or scrambled siRNAs. (E) histograms show xCT expression; open histograms show the background of negative control IgG stained cells from one representative experiment. (F) relative expression (%) of xCT^+, Sca-1^+, and CD44^high/CD24^low cells in tumorsphere-derived cells transfected with siRNAs to xCT (black bars) compared with cells transfected with scrambled siRNAs (dashed line). G and H, GSH (G) and ROS (H) levels in TUBO cells and their derived tumorspheres after either seeding in normal conditions, transfection with siRNAs to xCT, or scrambled siRNAs over three independent experiments. *, P<0.05; **, P<0.01;***, P<0.001, Student t test. […]
Dissociated tumorspheres were cultured with scalar doses of SASP or its diluent DMSO (Sigma-Aldrich), and the total number of tumorspheres/well was counted 5 days later.

[7] = system: TUBO-derived tumorspheres; experiment: Growth of s.c. tumors from TUBO-derived tumorspheres in vaccinated BALB/c mice; conditions: treated at 2 mm mean diameter, repeated the week later
Description: TUBO-derived tumorspheres were s.c. implanted into BALB/c mice that were vaccinated when tumors reached 2 or 4 mm mean diameter to evaluate whether xCT immune-targeting hinders breast cancer growth (FIG. 6A-6D).
Female 6- to 8-week-old wild-type (Charles River Laboratories) and Ig μ-chain gene knocked out (BALB-μIgKO) BALB/c mice were maintained at the Molecular Biotechnology Center, University of Torin, and treated in accordance with the University Ethical Committee and European guidelines under Directive 2010/63. Vaccination, performed either before or after tumor challenge, consisted of two intramuscular electroporations at 2 weeks interval, of pVAX1 or pVAX1-xCT plasmids.
Primary s.c. tumors were induced by injecting 1×10^4 TUBO or 4T1 tumorsphere-derived cells.

[8] = system: HCC-1806 derived tumorspheres; experiment: FACS binding of immune sera from VLP immunized mice to tumorspheres; format: cell-based, human; conditions: sera (1:50) of mice immunized with VLPs 3 times at 2 week intervals; passage 2 HCC-1806 tumorspheres
Procedure: FIG. 1A-1B. xCT VLPs elicit antibodies that bind to tumorspheres. Immune sera (1:50) from xCT or control (MS2) VLP immunized mice were incubated with HCC-1806 derived tumorspheres. A FITC conjugated anti mouse IgG was used to detect sera antibodies bound to the cells. (A) FACS analysis of the percentage of tumorsphere cells that bound to the immune sera. As a positive control for xCT binding, we used a commercially available xCT polyclonal antibody. (B) Immunofluorescence analysis showing antibody binding to a tumorsphere from an xCT ECD 6 immunized mouse. Cell nuclei are stained with DAPI.
To determine if xCT VLP vaccination generated antibodies that could bind to breast cancer stem cells, sera from animals immunized with VLPs 3 times at 2 week intervals were incubated with passage 2 tumorspheres from the human cell line HCC-1806.

[9] = system: mouse tubo-derived tumorspheres; experiment: Lung metastases in VLP immunized mice injected i.v. with tumorspheres; format: in vivo; conditions: 5×10^4 tumorspheres i.v., lungs 20 days later, vs MS2 control VLPs
Procedure: FIG. 2. […] Mice immunized with xCT or MS2 control VLPs were injected (i.v) with 5×10^4 mouse tubo-derived tumorspheres. 20 days later, animals were euthanized and lungs were removed, section and the number of metastatic foci were measured. The number of mice were MS2 (n=2), xCT ECD3 (n=5), xCT ECD5 (n=5) and xCT ECD6 (n=4). Metastatic lesions were counted from two lung sections per animal. Data presented is the average number of lesions per slide. Two-tailed student t test was used to determine significance. ** indicates a p-value <0.01.
Inhibition of xCT function by a […] vaccine inhibits the number of metastatic lesions in the lung by 40% in a well characterized breast cancer stem cell transplantation model.

O=C(O)c1cc(/N=N/c2ccc(S(=O)(=O)Nc3ccccn3)cc2)ccc1O [SASP, sulfasalazine]
stability and solubility [1]: labile and insoluble under physiological conditions | IC50 ([2]; Mus musculus, TUBO cells, read-out: IC50, cell viability (MTT)): 126 ± 25.7 µM | IC50 [3]: 51.6 ± 3.5 µM | metastatic foci [4]: significant decreases in metastatic foci | bioavailability [5]: low bioavailability | tumorsphere generation [6]: impaired tumorsphere generation

COc1cccc2c1C(=O)c1c(O)c3c(c(O)c1C2=O)C[C@@](O)(C(=O)CO)C[C@@H]3O[C@H]1C[C@H](N)[C@H](O)[C@H](C)O1 [doxorubicin]
sensitivity of TUBO cells compared with tumorspheres (MTT) ([2]; scalar doses): higher sensitivity | mice with tumor regression [7]: 25%

xCT ECD3: MS2 VLP displaying extracellular domain 3 of human xCT in the AB loop of the coat protein (MQLIKGQTQNFKDAFSGRDSSITR; displayed on MS2 VLP coat protein AB loop; listed as Homo sapiens)
antibody response: immune sera antibodies binding to tumorspheres by FACS [8]: generated antibodies against xCT that were able to bind to human breast cancer cells as well as a commercially available xCT antibody

xCT ECD6: MS2 VLP displaying extracellular domain 6 of human xCT in the AB loop of the coat protein (YSDPFS; displayed on MS2 VLP coat protein AB loop; listed as Homo sapiens)
reduction of the number of metastases in the lung [9]: ~60% | antibody response: immune sera antibodies binding to tumorspheres by FACS [8]: generated antibodies against xCT that were able to bind to human breast cancer cells as well as a commercially available xCT antibody
